Active and inactive are the calls of the source. The rule behind the calls is not given here.
Experiments:
[1] = Selectivity index, ratio of IC50 for antiproliferative activity against HEK293 cells to IC50 for antiproliferative activity against human MCF7 cells; type: toxicity, cell-based; conditions: HEK293 cells versus MCF7 cells, read-out: Ratio IC50
HMEC-1 [2] = assay: Antiproliferative activity against HMEC1 cells after 2 days by MTT assay; type: functional, cell-based; conditions: Homo sapiens, HMEC-1, 48 h
HL-60 = assay: Antiproliferative activity against human HL60 cells after 2 days by MTT assay; type: functional, cell-based; conditions: HL-60, 48 h
HeLa = assay: Antiproliferative activity against human HeLa cells after 2 days by MTT assay; type: functional, cell-based; conditions: 48 h
A549 [3] = assay: Cell cycle arrest in human A549 cells assessed as accumulation at G0/G1 phase at 200 nM after 20 hrs by propidium iodide staining based flow cytometry (reference value: 66 +/- 1%); type: functional
A549 [4] = assay: Cell cycle arrest in human A549 cells assessed as accumulation at sub-G0 phase at 200 nM after 20 hrs by propidium iodide staining based flow cytometry (reference value: 6.6 +/- 0.1%); type: functional
MDA-MB-231 [5] = assay: Antiproliferative activity against human MDA-MB-231 cells after 3 days by coulter counting method; type: functional, cell-based; conditions: MDA-MB-231, 72 h
[6] = Selectivity index, ratio of IC50 for antiproliferative activity against HEK293 cells to IC50 for antiproliferative activity against human HT-29 cells; type: toxicity, cell-based; conditions: HEK293 cells versus HT-29 cells, read-out: Ratio IC50
A549 [7] = assay: Antiproliferative activity against human A549 cells after 2 days by MTT assay; type: functional, cell-based; conditions: A549, 48 h
A549 [8] = assay: Cell cycle arrest in human A549 cells assessed as accumulation at G2/M phase at 200 nM after 20 hrs by propidium iodide staining based flow cytometry (reference value: 11 +/- 1%); type: functional
MCF7 = assay: Antiproliferative activity against human MCF7 cells after 2 days by MTT assay; type: functional, cell-based; conditions: MCF7, 48 h
HT-29 = assay: Antiproliferative activity against human HT-29 cells after 2 days by MTT assay; type: functional, cell-based; conditions: HT-29, 48 h
HEK293 = assay: Antiproliferative activity against HEK293 cells after 2 days by MTT assay; type: cell-based; conditions: Homo sapiens, HEK293, 48 h
A549 [9] = assay: Cell cycle arrest in human A549 cells assessed as accumulation at S phase at 200 nM after 20 hrs by propidium iodide staining based flow cytometry (reference value: 16 +/- 1%); type: functional
[10] = Selectivity index, ratio of IC50 for antiproliferative activity against HEK293 cells to IC50 for antiproliferative activity against human HeLa cells; type: toxicity, cell-based; conditions: HEK293 cells versus HeLa cells, read-out: Ratio IC50
[11] = Selectivity index, ratio of IC50 for antiproliferative activity against HEK293 cells to IC50 for antiproliferative activity against human HL60 cells; type: toxicity, cell-based; conditions: HEK293 cells versus HL60 cells, read-out: Ratio IC50
A549 [12] = assay: Cell cycle arrest in human A549 cells assessed as accumulation at G2/M phase at 750 nM after 20 hrs by propidium iodide staining based flow cytometry (reference value: 11 +/- 1%); type: functional
A549 [13] = assay: Cell cycle arrest in human A549 cells assessed as accumulation at S phase at 750 nM after 20 hrs by propidium iodide staining based flow cytometry (reference value: 16 +/- 1%); type: functional
A549 [14] = assay: Cell cycle arrest in human A549 cells assessed as accumulation at sub-G0 phase at 750 nM after 20 hrs by propidium iodide staining based flow cytometry (reference value: 6.6 +/- 0.1%); type: functional
A549 [15] = assay: Cell cycle arrest in human A549 cells assessed as accumulation at S phase at 65 nM after 20 hrs by propidium iodide staining based flow cytometry (reference value: 16 +/- 1%); type: functional
A549 [16] = assay: Disruption of microtubule network in human A549 cells assessed as appearance of compressed and fragmented nuclei at 260 nM after 16 hrs by Hoechst staining based immunofluorescence assay; type: cell-based
A549 [17] = assay: Cell cycle arrest in human A549 cells assessed as accumulation at sub-G0 phase at 65 nM after 20 hrs by propidium iodide staining based flow cytometry (reference value: 6.6 +/- 0.1%); type: functional
A549 [18] = assay: Disruption of microtubule network in human A549 cells assessed as appearance of tubulin aggregates at 260 nM after 16 hrs by Hoechst staining based immunofluorescence assay; type: cell-based
A549 [19] = assay: Cell cycle arrest in human A549 cells assessed as accumulation at G0/G1 phase at 65 nM after 20 hrs by propidium iodide staining based flow cytometry (reference value: 66 +/- 1%); type: functional
A549 [20] = assay: Cell cycle arrest in human A549 cells assessed as accumulation at G2/M phase at 65 nM after 20 hrs by propidium iodide staining based flow cytometry (reference value: 11 +/- 1%); type: functional
A549 [21] = assay: Induction of apoptosis in human A549 cells at 100 nM after 24 hrs by Annexin V-FITC/propidium iodide staining based flow cytometry (reference value: 28%); type: functional
A549 [22] = assay: Cell cycle arrest in human A549 cells assessed as accumulation at G0/G1 phase at 80 nM after 20 hrs by propidium iodide staining based flow cytometry (reference value: 66 +/- 1%); type: functional
HMEC-1 [23] = assay: Vascular disruptive activity in HMEC1 cells assessed as disruption of preformed tubular networks after 4 hrs by matrigel based assay; type: functional, cell-based; conditions: Homo sapiens
A549 [24] = assay: Cell cycle arrest in human A549 cells assessed as accumulation at S phase at 80 nM after 20 hrs by propidium iodide staining based flow cytometry (reference value: 16 +/- 1%); type: functional
A549 [25] = assay: Induction of apoptosis in human A549 cells at 10 nM after 24 hrs by Annexin V-FITC/propidium iodide staining based flow cytometry (reference value: 28%); type: functional
A549 [26] = assay: Cell cycle arrest in human A549 cells assessed as accumulation at sub-G0 phase at 80 nM after 20 hrs by propidium iodide staining based flow cytometry (reference value: 6.6 +/- 0.1%); type: functional
MDA-MB-231 [27] = assay: Inhibition of EBI binding to beta-tubulin colchicine binding site in human MDA-MB-231 cells at 3 uM preincubated for 16 hrs followed by EBI addition and measured after 1.5 hrs by Western blot analysis; type: cell-based
A549 [28] = assay: Cell cycle arrest in human A549 cells assessed as accumulation at G2/M phase at 80 nM after 20 hrs by propidium iodide staining based flow cytometry (reference value: 11 +/- 1%); type: functional
A549 [29] = assay: Induction of apoptosis in human A549 cells after 24 hrs by Annexin V-FITC/propidium iodide staining based flow cytometry; type: functional, cell-based
A549 [30] = assay: Cell cycle arrest in human A549 cells assessed as accumulation at S phase at 70 nM after 20 hrs by propidium iodide staining based flow cytometry (reference value: 16 +/- 1%); type: functional
Bos taurus = organism: Bos taurus; assay: Inhibition of calf brain tubulin polymerization after 60 mins by turbidimetric method
A549 [31] = assay: Cell cycle arrest in human A549 cells assessed as accumulation at sub-G0 phase at 70 nM after 20 hrs by propidium iodide staining based flow cytometry (reference value: 6.6 +/- 0.1%); type: functional
A549 [32] = assay: Cell cycle arrest in human A549 cells assessed as accumulation at G2/M phase at 70 nM after 20 hrs by propidium iodide staining based flow cytometry (reference value: 11 +/- 1%); type: functional

Row | SMILES | IC50 (HL-60) | IC50 (HeLa) | IC50 (MDA-MB-231 [5]) | IC50 (A549 [7]) | IC50 (MCF7) | IC50 (HT-29) | IC50 (HMEC-1 [2]) | IC50 (HEK293) | Activity (A549 [21]) | Activity (HMEC-1 [23]) | Activity (A549 [25]) | inhibition (MDA-MB-231 [27]) | Activity (A549 [29]) | further results
1 | COc1ccc(/C=C\c2cc(OC)c(OC)c(OC)c2)cc1NC(=O)Oc1cc(C)cc(C)c1 | 620 nM | 130 nM | 12 nM | 1540 nM | 210 nM | 260 nM | 180 nM | 150 nM | – | – | – | – | – | Activity (A549 [12]): 38%; Activity (A549 [13]): 16%; Activity (A549 [14]): 22%
2 | COc1ccc(/C=C\c2cc(OC)c(OC)c(OC)c2)cc1NC(=O)Oc1cccc(C(F)(F)F)c1 | 4 nM | 40 nM | 14.2 nM | 130 nM | 56 nM | 13 nM | 16 nM | 42.2 nM | – | – | – | – | – | Activity (A549 [15]): 15%; Activity (A549 [16]): Active; Activity (A549 [17]): 16%; Activity (A549 [18]): Active; Activity (A549 [19]): 28%; Activity (A549 [20]): 41%
3 | COc1ccc(/C=C\c2cc(OC)c(OC)c(OC)c2)cc1NC(=O)Oc1ccc(Cl)c(C)c1 | 0.4 nM | 3.3 nM | 4 nM | 140 nM | 8.1 nM | 11.4 nM | 7 nM | 8.4 nM | 90% | Dose-dependent effect | 41% | Active | Dose-dependent effect | Activity (A549 [30]): 22%; inhibition (Bos taurus): Active; Activity (A549 [31]): 18%; Activity (A549 [32]): 36%

Second part, led by results:

Row | IC50 (HL-60) | IC50 (HeLa) | IC50 (MDA-MB-231 [5]) | IC50 (A549 [7]) | IC50 (MCF7) | IC50 (HT-29) | SMILES | IC50 (HMEC-1 [2]) | IC50 (HEK293) | Activity (A549 [21]) | Activity (HMEC-1 [23]) | Activity (A549 [25]) | inhibition (MDA-MB-231 [27]) | Activity (A549 [29]) | further results
4 | 50 nM | 60 nM | 13.8 nM | 400 nM | 95.4 nM | 60 nM | COc1ccc(/C=C\c2cc(OC)c(OC)c(OC)c2)cc1NC(=O)Oc1ccc(F)cc1 | 65 nM | 185 nM | – | – | – | – | – | selectivity ratio [1]: 2 to 11; Activity (A549 [3]): 26%; Activity (A549 [4]): 21%; selectivity ratio [6]: 2 to 11; Activity (A549 [8]): 34%; Activity (A549 [9]): 19%; selectivity ratio [10]: 2 to 11; selectivity ratio [11]: 2 to 11
5 | 4.9 nM | 3.4 nM | 8 nM | 160 nM | 7.18 nM | 4.8 nM | COc1cccc(OC(=O)Nc2cc(/C=C\c3cc(OC)c(OC)c(OC)c3)ccc2OC)c1 | 5 nM | 8.1 nM | 92% | Dose-dependent effect | 49% | Active | Dose-dependent effect | Activity (A549 [22]): 31%; Activity (A549 [24]): 16%; Activity (A549 [26]): 17%; Activity (A549 [28]): 36%

Reference: ChEMBL document CHEMBL4145540 (Eur J Med Chem, 2018)
